Experimental data as given in patent US10590086B2, “Pharmaceutical compound” (IOmet Pharma Ltd., priority 2014, dated 2020).

Key:
IDO [1] = molecular target: T1, IDO (Homo sapiens, UniProt P14902); experiment: hIDO biochemical coupled assay; details: 45 μM L-tryptophan, read-out: hIDO biochemical assay pIC50 (converted)
TDO [2] = molecular target: T2, TDO (Homo sapiens, UniProt P48775); experiment: hTDO biochemical coupled assay; details: 330 μM L-tryptophan, read-out: hTDO biochemical assay pIC50 (converted)
T2 sequence (P48775 whole entry): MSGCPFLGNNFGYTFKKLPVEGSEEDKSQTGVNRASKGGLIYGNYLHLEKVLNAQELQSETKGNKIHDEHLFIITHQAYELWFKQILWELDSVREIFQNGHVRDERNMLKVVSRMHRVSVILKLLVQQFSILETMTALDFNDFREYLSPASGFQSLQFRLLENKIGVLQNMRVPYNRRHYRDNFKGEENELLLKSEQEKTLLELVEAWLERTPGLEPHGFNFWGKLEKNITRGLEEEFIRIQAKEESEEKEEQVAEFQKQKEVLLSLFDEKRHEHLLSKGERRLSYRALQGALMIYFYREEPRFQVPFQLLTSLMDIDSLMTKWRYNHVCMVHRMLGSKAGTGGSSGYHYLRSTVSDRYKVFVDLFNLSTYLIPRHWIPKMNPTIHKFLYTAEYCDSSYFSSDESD
Excerpt: Two different assays were employed: 1. a cell-based assay for detecting the effect of test compounds on kynurenine production in two different cancer cell types. This assay utilised cancer cells which expressed either TDO or IDO and as such was used as a means of testing compound activity at these two enzymes in a cell-based context. 2. a TDO and IDO biochemical coupled assay which utilised recombinantly produced and purified TDO and IDO enzymes in combination with the enzyme formamidase. This coupled enzyme system allowed conversion of N-formylkynurenine produced by TDO or IDO activity to kynurenine which was then quantified by fluorescence following addition of Erhlich's Reagent The protocols for these are set out below.

IDO [3] = molecular target: T1, IDO; experiment: SKOV3 kynurenine cell-based assay (IDO induced by IFN-γ); design: IDO expression was induced in the SKOV3 cells by the addition of 500 ng/ml IFN-γ; endogenous in cells; host or cells: SKOV3 (human ovarian adenocarcinoma), induced with IFN-γ; details: 48 hours, read-out: SKOV3 Kynurenine cell based assay pIC50 (converted)
How it was run: (§1)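 Readout: […] of cell supernatant 5 min after Erhlich's reagent, reporting kynurenine. Cells: A172 (TDO) or SKOV3 + 500 ng/ml IFN-γ (IDO), 48 h, 37° C, ± compound. Medium: phenol red-free RPMI, 10% FCS, 2 mM L-glutamine, 500 μM L-tryptophan.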

TDO [4] = molecular target: T2, TDO; experiment: A172 kynurenine cell-based assay; design: This assay utilised cancer cells which expressed either TDO or IDO; endogenous in cells; host or cells: A172 (human glioblastoma); details: A172 human glioblastoma cells, 48 hours, read-out: A172 Kynurenine cell based assay pIC50 (converted)
How it was run: as §1

[5] = SKOV3 human ovarian adenocarcinoma cells, 500 ng/ml IFN-γ, 500 μM L-tryptophan

T1 sequence (P14902 whole entry): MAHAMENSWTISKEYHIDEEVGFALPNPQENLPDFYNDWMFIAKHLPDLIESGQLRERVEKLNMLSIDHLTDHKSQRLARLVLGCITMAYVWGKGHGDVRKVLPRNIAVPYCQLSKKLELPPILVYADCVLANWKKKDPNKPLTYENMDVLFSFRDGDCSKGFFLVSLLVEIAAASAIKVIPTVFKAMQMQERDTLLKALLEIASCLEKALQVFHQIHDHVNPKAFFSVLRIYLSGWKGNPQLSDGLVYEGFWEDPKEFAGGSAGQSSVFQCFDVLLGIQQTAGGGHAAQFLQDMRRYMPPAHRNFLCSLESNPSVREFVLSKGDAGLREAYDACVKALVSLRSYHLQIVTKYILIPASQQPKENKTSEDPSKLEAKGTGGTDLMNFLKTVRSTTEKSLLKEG

Row | SMILES | IC50 (IDO [1]; 17 minutes, room temperature) | IC50 (TDO [2]; 17 minutes, room temperature) | IC50 (IDO [3]; [5]) | IC50 (TDO [4]; 500 μM L-tryptophan) | IC50 (IDO [1]) | IC50 (TDO [2]) | IC50 (IDO [3]; SKOV3 cells, IDO induced by 500 ng/ml IFN-γ) | IC50 (TDO [4])
1 | Cc1nc2c(n1C)CCN(c1cc(Cl)cc3[nH]ncc13)C2 [Compound 252] | > 100 µM | < 3.16 µM | 32.4 to 100 µM | < 3.16 µM |  |  |  | 
2 | O=C1NC2(CCN(c3cc(Cl)cc4[nH]ncc34)CC2)C(=O)N1CC1CC1 [Compound 390] | < 3.16 µM | < 3.16 µM | < 3.16 µM | < 3.16 µM |  |  |  | 
3 | CNS(=O)(=O)c1ccc(-c2cc(Cl)cc3[nH]ncc23)cc1 [Compound 300] | 32.4 to 100 µM | < 3.16 µM | 3.24 to 31.6 µM | < 3.16 µM |  |  |  | 
4 | O=C1CCC2(CCN(c3cc(Cl)cc4[nH]ncc34)CC2)N1 [Compound 215] | 3.24 to 31.6 µM | < 3.16 µM | 3.24 to 31.6 µM | < 3.16 µM |  |  |  | 
5 | CS(=O)(=O)N1CCN(c2cc(Cl)cc3c(N)n[nH]c23)CC1 [Compound 306] | > 100 µM | > 100 µM | 3.24 to 31.6 µM | 3.24 to 31.6 µM |  |  |  | 
6 | CC1(C)CN(c2cc(Br)cc3[nH]ncc23)CCN1S(C)(=O)=O [Compound 91] | < 3.16 µM | < 3.16 µM | < 3.16 µM | < 3.16 µM |  |  |  | 
7 | Clc1cc(N2CCC(c3ccccc3)CC2)c2cn[nH]c2c1 [Compound 183] | 3.24 to 31.6 µM | < 3.16 µM | 3.24 to 31.6 µM | < 3.16 µM |  |  |  | 
8 | O=S(=O)(C1CCCC1)N1CCN(c2cccc3[nH]ncc23)CC1 [Compound 17] | > 100 µM | 3.24 to 31.6 µM | 32.4 to 100 µM | 3.24 to 31.6 µM |  |  |  | 
9 | CN(c1cc(N2CCN(S(C)(=O)=O)C(C)(C)C2)c2cn[nH]c2c1)S(C)(=O)=O [Compound 310] | > 100 µM | > 100 µM | > 100 µM | 32.4 to 100 µM |  |  |  | 
10 | CNC(=O)CC1CCN(c2cc(Cl)cc3[nH]ncc23)CC1 [Compound 364] | > 100 µM | < 3.16 µM | 3.24 to 31.6 µM | < 3.16 µM |  |  |  | 
11 | O=C1NC2(CCN(c3cc(Cl)cc4[nH]ncc34)CC2)C(=O)N1Cc1ncco1 [Compound 407] | < 3.16 µM | < 3.16 µM | < 3.16 µM | < 3.16 µM |  |  |  | 
12 | OC(Cc1ccccc1)c1cc(Cl)cc2[nH]ncc12 (stereo not drawn) [Compound 281] | 3.24 to 31.6 µM | < 3.16 µM | 3.24 to 31.6 µM | < 3.16 µM |  |  |  | 
13 | CS(=O)(=O)c1ccc(-c2cc(Cl)cc3[nH]ncc23)c(Cl)c1 [Compound 384] | 3.24 to 31.6 µM | < 3.16 µM | 3.24 to 31.6 µM | < 3.16 µM |  |  |  | 
14 | CC(C)C(O)c1cc(Cl)cc2[nH]ncc12 (stereo not drawn) [Compound 260] | 3.24 to 31.6 µM | < 3.16 µM | 3.24 to 31.6 µM | < 3.16 µM |  |  |  | 
15 | CC(=O)N1CCC(c2cc(Cl)cc3[nH]ncc23)CC1(C)C (stereo not drawn) [Compound 400] | < 3.16 µM | < 3.16 µM | < 3.16 µM | < 3.16 µM |  |  |  | 
16 | CC(=O)NCCN1CCN(c2cc(Cl)cc3[nH]ncc23)CC1(C)C [Compound 421] | 3.24 to 31.6 µM | < 3.16 µM | > 100 µM | < 3.16 µM |  |  |  | 
17 | CNC(=O)C1CCN(c2cc(Cl)cc3[nH]ncc23)C1 (stereo not drawn) [Compound 298] | 3.24 to 31.6 µM | < 3.16 µM | 3.24 to 31.6 µM | 3.24 to 31.6 µM |  |  |  | 
18 | CC1(C)CN(c2cc(C(F)(F)F)cc3[nH]ncc23)CCN1S(C)(=O)=O [Compound 78] | 3.24 to 31.6 µM | < 3.16 µM | < 3.16 µM | < 3.16 µM |  |  |  | 

Row | SMILES | IC50 (IDO [1]; 17 minutes, room temperature) | IC50 (TDO [2]; 17 minutes, room temperature) | IC50 (IDO [3]; [5]) | IC50 (TDO [4]; 500 μM L-tryptophan) | IC50 (IDO [1]) | IC50 (TDO [2]) | IC50 (IDO [3]; SKOV3 cells, IDO induced by 500 ng/ml IFN-γ) | IC50 (TDO [4])
19 | CS(=O)(=O)NCC1CCCN(c2cc(Cl)cc3[nH]ncc23)C1 (stereo not drawn) [Compound 284] | > 100 µM | < 3.16 µM | 32.4 to 100 µM | 3.24 to 31.6 µM |  |  |  | 
20 | CNC(=O)NC1CCN(c2cc(Cl)cc3[nH]ncc23)CC1 [Compound 377] | 32.4 to 100 µM | < 3.16 µM | 3.24 to 31.6 µM | < 3.16 µM |  |  |  | 
21 | O=C1Nc2ccccc2C12CCN(c1cc(Cl)cc3[nH]ncc13)CC2 [Compound 371] | > 100 µM | < 3.16 µM | 3.24 to 31.6 µM | 3.24 to 31.6 µM |  |  |  | 
22 | O=C1NCC2(CCN(c3cc(Cl)cc4[nH]ncc34)CC2)O1 [Compound 344] | 3.24 to 31.6 µM | < 3.16 µM | 3.24 to 31.6 µM | < 3.16 µM |  |  |  | 
23 | CC(=O)N1CCN(c2cc(Cl)cc3c(N)n[nH]c23)CC1 [Compound 322] | > 100 µM | > 100 µM | 3.24 to 31.6 µM | 3.24 to 31.6 µM |  |  |  | 
24 | CN(CC1CCCN(c2cc(Cl)cc3[nH]ncc23)C1)S(C)(=O)=O (stereo not drawn) [Compound 285] | > 100 µM | 3.24 to 31.6 µM | 32.4 to 100 µM | 3.24 to 31.6 µM |  |  |  | 
25 | CC(=O)N1CCC(c2cccc3[nH]ncc23)CC1 [Compound 14] | > 100 µM | 32.4 to 100 µM | 32.4 to 100 µM | 3.24 to 31.6 µM |  |  |  | 
26 | CS(=O)(=O)N1CCC2(CCN(c3cc(Cl)cc4[nH]ncc34)CC2)C1 [Compound 349] | 32.4 to 100 µM | < 3.16 µM | 32.4 to 100 µM | < 3.16 µM |  |  |  | 
27 | CN1CCN(c2cc(Cl)cc3[nH]ncc23)CC1=O [Compound 332] | > 100 µM | < 3.16 µM | > 100 µM | < 3.16 µM |  |  |  | 
28 | CC1(C)CN(c2cc(Cl)cc3[nH]ncc23)CCC1NS(C)(=O)=O (stereo not drawn) [Compound 336] | 3.24 to 31.6 µM | < 3.16 µM | 3.24 to 31.6 µM | < 3.16 µM |  |  |  | 
29 | CC1(C)CN(c2cc(Cl)cc3[nH]ncc23)CCC12NC(=O)NC2=O (stereo not drawn) [Compound 424, 8-(6-chloro-1H-indazol-4-yl)-6,6-dimethyl-1,3,8-triazaspiro[4.5]decane-2,4-dione] | < 3.16 µM | < 3.16 µM | < 3.16 µM | < 3.16 µM | 0.347 µM | 0.24 µM | 0.145 µM | 0.0759 µM
30 | CC(=O)N1CC2(CCN(c3cc(Cl)cc4[nH]ncc34)CC2)C1 [Compound 359] | 3.24 to 31.6 µM | < 3.16 µM | 3.24 to 31.6 µM | < 3.16 µM |  |  |  | 
31 | O=C1Nc2ccccc2NC12CCN(c1cc(Cl)cc3[nH]ncc13)CC2 [Compound 404] | 32.4 to 100 µM | < 3.16 µM | < 3.16 µM | 3.24 to 31.6 µM |  |  |  | 
32 | CS(=O)(=O)c1ccc(-c2cc(Cl)cc3[nH]ncc23)cc1Cl [Compound 264] | 3.24 to 31.6 µM | < 3.16 µM | < 3.16 µM | < 3.16 µM |  |  |  | 
33 | CC(=O)N(C)C1CCN(c2cc(Cl)cc3[nH]ncc23)CC1 [Compound 251] | < 3.16 µM | < 3.16 µM | 3.24 to 31.6 µM | < 3.16 µM |  |  |  | 
34 | CC(C)CC(O)c1cc(Cl)cc2[nH]ncc12 (stereo not drawn) [Compound 272] | 32.4 to 100 µM | < 3.16 µM | 3.24 to 31.6 µM | < 3.16 µM |  |  |  | 
35 | Cn1ccnc1CN1C(=O)NC2(CCN(c3cc(Cl)cc4[nH]ncc34)CC2)C1=O [Compound 408] | < 3.16 µM | < 3.16 µM | < 3.16 µM | < 3.16 µM |  |  |  | 
